Laboratory results as given in US5536750A, “Inhibitors of farnesyl-protein transferase” (Merck & Co., Inc., priority 1994, dated 1996).

Legend:
[1] = system: Ras farnesylation (viral Ha-ras p21) in the v-ras cell line; test: In vivo ras farnesylation assay in the v-ras cell line; type: cell-based; conditions: v-ras cells; 4 hours at 37° C. then additional 20 hours with [35S]methionine; read-out: IC50, inhibition of Ras farnesylation in the v-ras cell line
Procedure: The cell line used in this assay was the v-ras line, which expressed viral Ha-ras p21. The assay was performed essentially as described in DeClue, J. E. et. al., Cancer Research 51:712-717, (1991). Cells in 10 cm dishes at 50-75% confluency were treated with the test s compound (final concentration of solvent, methanol or dimethyl sulfoxide, was 0.1%). After 4 hours at 37° C., the cells were labelled in 3 ml methionine-free DMEM supplemented with 10% regular DMEM, 2% fetal bovine serum and 400 μCi[^35 S]methionine (1000 Ci/mmol). After an additional 20 hours, the cells were lysed in 1 ml lysis buffer (1% NP40/20 mM HEPES, pH 7.5/5 mM MgCl2 /1 mM DTT/10 μg/ml aprotinen/2 μg/ml leupeptin/2 μg/ml antipain/0.5 mM PMSF) and the lysates cleared by centrifugation at 100,000 × g for 45 min. Aliqouts of lysates containing equal numbers of acid-precipitable counts were bought to 1 ml with IP buffer (lysis buffer lacking DTT) and immunoprecipitated with the ras-specific monoclonal antibody Y13-259 (Furth, M. E. et. al., J. Virol. 43:294-304, (1982)). Following a 2 hour antibody incubation at 4° C., […] of a 25% suspension of protein A-Sepharose coated with rabbit anti rat IgG was added for 45 min. […]

Bovine FPTase = molecular target: T1, Bovine FPTase (Bos taurus, UniProt P29702+P49355); test: In vitro inhibition of ras farnesyl transferase, partially purified bovine FPTase, Ras-CVLS and [3H]-FPP; type: biochemical; conditions: 650 nM Ras-CVLS, pH 7.4, 31° C., 60 min, read-out: IC50, inhibition of RAS farnesylation (concentration giving 50% inhibition of FTase)
T1 construct: Partially purified bovine FPTase; from tissue
Procedure: Assays of farnesyl-protein transferase. Partially purified bovine FPTase and Ras peptides (Ras-CVLS, Ras-CVIM and RAS-CAIL) were prepared as described by Schaber et al., J. Biol. Chem. 265:14701-14704 (1990), Pompliano, et al., Biochemistry 31:3800 (1992) and Gibbs et at., PNAS U.S.A. 86:6630-6634 (1989), respectively. Bovine FPTase was assayed in a volume of 100 μl containing 100 mM N-(2-hydroxy ethyl) piperazine-N'-(2-ethane sulfonic acid) (HEPES), pH 7.4, 5 mM MgCl2, 5 mM dithiothreitol (DTT), […] [^3 H]-farnesyl diphosphate ([^3 H]-FPP; […], New England Nuclear), 650 nM Ras-CVLS and 10 μg/ml FPTase at 31° C. for 60 min. Reactions were initiated with FPTase and stopped with 1 ml of 1.0M HCL in ethanol. Precipitates were collected onto filter-mats using a TomTec Mach II cell harvestor, washed with 100% ethanol, dried and counted in an LKB β-plate counter. The assay was linear with respect to both substrates, FPTase levels and time; less than 10% of the [ ^3 H]-FPP was utilized during the reaction period. Purified compounds were dissolved in 100% dimethyl sulfoxide (DMSO) and were diluted 20-fold into the assay. Percentage inhibition is measured by the amount of incorporation of farnesyl in the presence of the test compound when compared to the amount of incorporation in the absence of the test compound.

Ras farnesylation = conditions: Hancock et al., Casey et al., Schafer et al.; cited from earlier work
Human FPTase = molecular target: T2, Human FPTase (Homo sapiens, UniProt P49354+P49356); test: In vitro inhibition of ras farnesyl transferase, recombinant human FPTase, Ras-CVIM and [3H]-FPP; type: biochemical; conditions: 100 nM Ras-CVIM, 30 min, read-out: IC50, inhibition of RAS farnesylation (concentration giving 50% inhibition of FTase)
T2 construct: made in house

| SMILES | IC50 [1] [nM] | Inhibition of Ras farnesylation in vivo (Ras farnesylation) | other results |
| --- | --- | --- | --- |
| CC[C@H](C)[C@@H](C(=O)N[C@H]1CCOC1=O)N(C)C[C@@H](NC[C@@H](N)CS)[C@@H](C)CC [N-[2(S)-(2(R)-Amino-3-mercaptopropylamino)-3(S)-methylpentyl]-N-methyl-isoleucyl-homoserine lactone] | 50000 |  |  |
| CC[C@H](C)[C@@H](C(=O)N[C@@H](CCO)C(=O)O)N(C)C[C@@H](NC[C@@H](N)CS)[C@@H](C)CC [N-[2(S)-(2(R)-Amino-3-mercaptopropylamino)-3(S)-methylpentyl]-N-methyl-isoleucyl-homoserine] |  |  | IC50 (Bovine FPTase): 72 nM |
| CC[C@H](C)C(=O)O[C@H]1C[C@@H](C)C=C2C=C[C@H](C)[C@H](CC[C@@H]3C[C@@H](O)CC(=O)O3)[C@H]21 [lovastatin] |  | Inhibition of Ras farnesylation in vivo has been demonstrated |  |
| CC[C@H](C)[C@@H](C(=O)N[C@@H](CCSC)C(=O)O)N(C)C[C@@H](NC[C@@H](N)CS)[C@@H](C)CC [N-[2(S)-(2(R)-amino-3-mercaptopropylamino)-3(S)-methyl-pentyl]-N-methyl-isoleucyl-methionine] |  |  | IC50 (Human FPTase): 20 nM |
| CC[C@H](C)[C@@H](C(=O)N[C@@H](CCSC)C(=O)OC)N(C)C[C@@H](NC[C@@H](N)CS)[C@@H](C)CC [N-[2(S)-(2(R)-amino-3-mercaptopropylamino)-3(S)-methyl-pentyl]-N-methyl-isoleucyl-methionine methyl ester] | 5000 |  |  |
| CC[C@H](C)C(=O)O[C@H]1CCC=C2C=C[C@H](C)[C@H](CC[C@@H]3C[C@@H](O)CC(=O)O3)[C@H]21 [compactin] |  | Inhibition of Ras farnesylation in vivo has been demonstrated |  |
